± gives the standard deviation of the reports.
glass transition temperature [°C]	Structure (SMILES)
8.00	*CCCCCCOC(=O)OCCCCCCCCOC(=O)OCCCCCCn1c(=O)c2cc3c(=O)n(*)c(=O)c3cc2c1=O (repeat unit)
220.00	*Oc1cccc(NC(=O)c2ccc([Si](C)(C)c3ccc(C(*)=O)cc3)cc2)c1 (repeat unit)
193.00 ± 8.5	*c1cccc(Oc2cccc(Oc3cccc(N4C(=O)c5ccc(Oc6ccc7c(c6)C(=O)N(*)C7=O)cc5C4=O)c3)c2)c1 (repeat unit)
430.00	*c1ccc(C(c2ccc(N3C(=O)c4cc5c(cc4C3=O)C(C(F)(F)F)(C(F)(F)F)c3cc4c(cc3O5)C(=O)N(*)C4=O)cc2)(C(F)(F)F)C(F)(F)F)cc1 (repeat unit)
48.00	*CCCCCCCCNC(=O)CCCCCCCCCCCCCCCCCCCCC(=O)N* (repeat unit)
173.00	*c1ccc(-c2nnc(*)o2)c(OCCCCCCCC)c1 (repeat unit)
240.00	*C(=O)Nc1ccc(Oc2ccccc2-c2ccccc2Oc2ccc(NC(=O)c3ccc4c(c3)C(=O)N(c3ccc(Cc5ccc(N6C(=O)c7ccc(*)cc7C6=O)cc5)cc3)C4=O)cc2)cc1 (repeat unit)
183.00	*c1ccc(Cc2ccc(N(c3ccc(C)cc3)c3ccc(-c4ccc(N(*)c5ccc(C)cc5)cc4)cc3)cc2)cc1 (repeat unit)
121.00	*CCN(CCOC(=O)Nc1ccc(C)c(NC(=O)O*)c1)c1ccc(/C=C/c2ccc([N+](=O)[O-])cc2)cc1 (repeat unit)
100.00	*Cc1ccc(CNC(=O)CCCCCCCCCCCC(=O)N*)cc1 (repeat unit)
30.00	*O[Si](*)(C)CCCOCCOCCOc1ccc(COc2ccc3cc(C#N)ccc3c2)cc1 (repeat unit)
160.00	*CCCCCCCCCCCCCCc1ccc(-c2c(-c3ccccc3)cc(-c3cccc(-c4cc(-c5ccccc5)c(-c5ccc(*)cc5)c(-c5ccccc5)c4-c4ccccc4)c3)c(-c3ccccc3)c2-c2ccccc2)cc1 (repeat unit)
177.00	*c1cccc(Oc2cccc(Oc3cccc(N4C(=O)C5C6C=CC(C7C(=O)N(*)C(=O)C67)C5C4=O)c3)c2)c1 (repeat unit)
370.00	*Nc1ccc(C2(c3ccc(NC(=O)c4cc(NC(=O)C56CC7CC(CC(C7)C5)C6)cc(C(*)=O)c4)cc3)c3ccccc3-c3ccccc32)cc1 (repeat unit)
135.00	*Nc1ccc(NC(=O)CCCC(*)=O)cc1 (repeat unit)
-38.00	*CC#CCOC(=O)CCCCCCC(=O)O* (repeat unit)
42.00	*Oc1ccc(CC(NC(=O)CCc2ccc(OC(=O)CCCCCCCCC(*)=O)cc2)C(=O)OCc2ccccc2)cc1 (repeat unit)
100.00	*CC(O)CN(C)S(=O)(=O)c1cccc(S(=O)(=O)N(C)CC(O)COc2ccc(S(=O)(=O)c3ccc(O*)cc3)cc2)c1 (repeat unit)
327.00	*c1ccc(N2C(=O)CC(C3C=C(C)C4C(=O)N(*)C(=O)C4C3)C2=O)cc1 (repeat unit)
312.00	*C(=O)Nc1ccc(C2(c3ccc(N4C(=O)c5ccc(*)cc5C4=O)cc3)CCC(CC)CC2)cc1 (repeat unit)
147.00	*Oc1ccc(NC(=O)c2ccc(Oc3ccc(C(C)(C)c4cccc(C(C)(C)c5ccc(Oc6ccc(C(=O)Nc7ccc(Oc8ccc(C(C)(C)c9ccc(*)cc9)cc8)cc7)cc6)cc5)c4)cc3)cc2)cc1 (repeat unit)
225.00	*c1ccc(Oc2cccc(N3C(=O)c4ccc(Oc5ccc6cc(Oc7ccc8c(c7)C(=O)N(*)C8=O)ccc6c5)cc4C3=O)c2)cc1 (repeat unit)
272.00	*C(=O)Nc1ccc(Oc2ccc(C3(c4ccc(Oc5ccc(NC(=O)c6ccc7c(c6)C(=O)N(c6ccc(Oc8cccc(N9C(=O)c%10ccc(*)cc%10C9=O)c8)cc6)C7=O)cc5)cc4)NC(=O)c4ccccc43)cc2)cc1 (repeat unit)
205.00	*c1ccc(Oc2ccc(-c3ccc(Oc4ccc(N5C(=O)c6ccc(Oc7ccc(Sc8ccc(Oc9ccc%10c(c9)C(=O)N(*)C%10=O)cc8)cc7)cc6C5=O)cc4)cc3)cc2)cc1 (repeat unit)
190.2	*Oc1ccc(NC(=O)c2cc(-c3ccc(C(=O)OCC)c(C(=O)Nc4ccc(*)cc4)c3)ccc2C(=O)OCC)cc1 (repeat unit)
147.00	*CC(*)c1cc(OC)c(OC(C)=O)c(OC)c1 (repeat unit)
286.00	*C(=O)c1ccc2c(c1)C(=O)N(c1ccc(C(=O)c3ccc(C(=O)c4ccc(N5C(=O)c6ccc(*)cc6C5=O)cc4)cc3)cc1)C2=O (repeat unit)

glass transition temperature [°C]	Structure (SMILES)
279.00	*Oc1cccc(C(=O)Nc2ccc(-c3ccc(NC(=O)c4cccc(Oc5nc(*)nc(Sc6ccccc6)n5)c4)cc3)cc2)c1 (repeat unit)
30.00	*CC1CCC(COC(C)OC(=O)c2cccc(C(=O)OC(C)O*)c2)CC1 (repeat unit)
230.00	*c1cccc(N2C(=O)c3ccc(Oc4ccc5cc(Oc6ccc7c(c6)C(=O)N(*)C7=O)ccc5c4)cc3C2=O)c1 (repeat unit)
43.00	*CC(*)c1ccc(C(O)CCN(C)C)cc1 (repeat unit)
-69.70	*O[Si](*)(CCCOCCOCCOCCOCCOCCOC)CCCOCCOCCOCCOCCOCCOC (repeat unit)
319.00	*c1cccc(-c2nc3cc(-c4ccc5nc(*)c(-c6ccccc6)nc5c4)ccc3nc2-c2ccccc2)c1 (repeat unit)
252.00	*Oc1ccc(C2(c3ccc(Oc4ccc(C(=O)c5ccc(*)cc5)cc4)cc3)c3ccccc3-c3ccccc32)cc1 (repeat unit)
244.00	*c1cccc(C(=O)Nc2ccc(Oc3ccc(Oc4ccc(NC(=O)c5cccc(N6C(=O)c7ccc(-c8ccc9c(c8)C(=O)N(*)C9=O)cc7C6=O)c5)cc4)cc3)cc2)c1 (repeat unit)
150.00	*Nc1ccccc1CCc1ccc(NC(=O)NCCCCCCNC(*)=O)cc1 (repeat unit)
57.86	*Oc1ccc(/C=C2\CCC/C(=C\c3ccc(OC(=O)c4cccc(C(*)=O)c4)c(OC)c3)C2=O)cc1OC (repeat unit)
126.00	*CCCCN1C(=O)c2ccc(C(=O)Oc3ccc(-c4ccc(OC(=O)c5ccc6c(c5)C(=O)N(*)C6=O)cc4)cc3)cc2C1=O (repeat unit)
64.00	*CC(CCCC)COC(=O)NC(=O)c1cccc(C(=O)NC(=O)O*)c1 (repeat unit)
103.20	*CC(*)(C)C(=O)OCCCCCCCCCCOc1ccc(/N=N/c2ccc(C3OCC4(CO3)CC3C=CC4C3)cc2)cc1 (repeat unit)
152.00	*[Si](*)(C)c1ccc(COCCN(CC)c2ccc(/N=N/c3ccc([N+](=O)[O-])cc3)cc2)cc1 (repeat unit)
90.00	*Oc1ccc(C(C)(C)c2ccc(OC(=O)c3ccc(C(*)=O)cc3)c(C(C)CC)c2)cc1C(C)CC (repeat unit)
170.00	*C(=O)Nc1ccc(Oc2ccc(C(=O)c3ccc(Oc4ccc(NC(=O)c5ccc(*)nc5)cc4)cc3)cc2)cc1 (repeat unit)
214.00	*Oc1ccc(C(C)(C)c2ccc(Oc3ccc(C(=O)Nc4cccc(NC(=O)c5ccc(*)cc5)c4)cc3)cc2)cc1 (repeat unit)
301.00	*c1ccc2c(c1)C(=O)N(c1ccc(Sc3ccc(N4C(=O)c5ccc(C(*)(C(F)(F)F)C(F)(F)F)cc5C4=O)cc3)cc1)C2=O (repeat unit)
19.00	*CC(=O)NCCCCCCNC(=O)COC(=O)CCCCC(=O)O* (repeat unit)
89.00	*CC1CCC(CNC(=O)CCCCCCCCC(=O)N*)CC1 (repeat unit)
-26.00	*CC(CCCCCCCCCCCCCCCC)C(CCCCCCCCCCCCCCCC)COC(=O)c1ccc(C(=O)O*)cc1 (repeat unit)
148.00	*Oc1ccc(Oc2ccc(C(=O)c3cccc(C(=O)c4ccc(*)cc4)c3)cc2)cc1 (repeat unit)
222.00	*c1ccc2c(c1)C(=O)N(c1ccc(-c3ccc(N4C(=O)c5ccc(C(*)(C(F)(F)F)C(F)(F)F)cc5C4=O)c(OCCN(CC)c4ccc(C(C#N)=C(C#N)C#N)cc4)c3)cc1OCCN(CC)c1ccc(C(C#N)=C(C#N)C#N)cc1)C2=O (repeat unit)
205.50	*Nc1ccc(NC(=O)c2ccc(NC(=O)CCCCCCCCCCC(=O)Nc3ccc(C(*)=O)cc3)cc2)cc1C(=O)OCCCCCCCCCCCC (repeat unit)
46.00	*C/C=C/COC(=O)C(Cc1ccccc1)NC(=O)CCCCCCCCC(=O)NC(Cc1ccccc1)C(=O)O* (repeat unit)
150.00	*Oc1ccc(Cc2ccc(OC(=O)c3cccc(C(*)=O)c3)cc2)cc1 (repeat unit)

Structure (SMILES)	glass transition temperature [°C]
*CC(*)OC(=O)CC (repeat unit) [Poly(vinyl propionate) ]	10 ± 2
*CC(*)C(=O)Nc1ccccc1Cl (repeat unit)	63.00
*CCCCCCCCCCOc1ccc(/C=C/c2ccc(OCCCCCCCCCCOP(=O)(O*)OCCCCCCCCCCOc3ccc(/N=N/c4ccc(OC)cc4)cc3)cc2)cc1 (repeat unit)	58.00
*CC(*)C(C)C (repeat unit) [Poly(isopropylethylene)]	49 ± 18
*CC(*)(C)C(=O)OCCCl (repeat unit) [Poly(2-chloroethyl methacrylate) ]	90 ± 16
*CC(*)c1ccncc1 (repeat unit) [Poly(p-vinyl pyridine) ]	142 ± 5.4
*CC(*)C(=O)Oc1ccc(Cl)cc1 (repeat unit)	330.00
*C(=O)OCCN(CCOC(=O)c1ccc2c(c1)C(=O)N(c1c(C)cc(Cc3cc(C)c(N4C(=O)c5ccc(*)cc5C4=O)c(C)c3)cc1C)C2=O)c1ccc(/N=N/c2ccc([N+](=O)[O-])cc2[N+](=O)[O-])cc1 (repeat unit)	176.00
*N=P(N=P(N=S(*)(=O)NC)(NC)NC)(NC)NC (repeat unit)	22.00
